Assay results from patent US11834698B2, “Process for determining enzyme activity in a cell by activity-based reporter gene technology (ABRGT)” (INDIAN INSTITUTE OF SCIENCE EDUCATION AND RESEARCH, priority 2018, dated 2023).
Peptide text beside a SMILES is read from it. * marks the point of attachment. Cbz = O=C(OCc1ccccc1)*; CH2F = FC*

Molecular target: T1, caspase-3 GFPspark (Homo sapiens, UniProt P42574)
T1 sequence (P42574 29-175 limits assumed): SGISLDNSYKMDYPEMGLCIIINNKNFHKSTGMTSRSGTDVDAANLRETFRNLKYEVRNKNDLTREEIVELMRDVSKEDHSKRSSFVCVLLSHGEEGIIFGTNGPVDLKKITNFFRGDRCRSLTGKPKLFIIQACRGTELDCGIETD
T1 sequence (P42574 176-277 limits assumed): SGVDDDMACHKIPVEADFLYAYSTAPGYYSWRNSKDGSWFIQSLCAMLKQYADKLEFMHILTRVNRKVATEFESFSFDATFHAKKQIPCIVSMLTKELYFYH
Experiment: AbRGT FRET imaging / acceptor photobleaching, caspase-3 GFPspark in MCF-7 cells
Assay type: cell-based
Design: host or cells: MCF-7, HeLa, HEK-293
Details: for effect of inhibitor on FRET signal: STS 4 h
Experimental: FIG. 2 depicts (a) a schematic representation of AbRGT in determining the specific activation of caspase-3 GFPspark tagged enzyme by FRET effect utilizing Rh-VAD-FMK (probe 1). (b) The fluorescence signal was collected in GFP, FRET and Rhodamine (Rh) channels. MCF-7 cells transfected with caspase-3 GFPspark treated with (i) 1 μM STS for 4 h or (ii) 1 μg/ml TRAIL for 5 h and then labelled with probe 1. (iii) Un-transfected MCF-7 cells were treated with 1 μM STS for 4 h and then labelled with the probe 1. MCF-7 cells transfected with enhanced green fluorescent protein (EGFP) plasmid treated (iv) with 1 μM STS or (v) without STS for 4 h and then labelled with probe 1, scale bar, […]. (c) FRET validation between GFPspark and rhodamine fluorophore using the acceptor photobleaching method. Images for GFP and rhodamine fluorescence signals were collected in GFP and FRET channels pre- and post-bleaching of rhodamine signals. (d) Quantification of change in GFP fluorescence intensity after rhodamine photo-bleaching in both unbleached control region and rhodamine bleached region, region of interest (ROI), area under the white square. Error bar represents the s.e.m for n=15 cells (*P<0.00001). Scale bar, 10 μm. a.u., arbitrary units.
FIGS. 6A and 6B depict time dependent activation of caspase-3 GFPspark in MCF-7 cells upon STS (1 μM) induction. MCF-7 cells transfected with 2 μg of caspase-3 GFPspark plasmid and treated with 1 μM of STS for 2, 6, and 8 h. Cells were then labelled with the probe 1 for an additional 2 h. […] FRET validation between GFPspark and rhodamine fluorophore using the acceptor photobleaching method for the MCF-7 cells with STS induction for 2, 6 and 8 h. I=intensity (a.u.), arbitrary units. The calculated FRET efficiency for 2, 6 and 8 h are 38, 43, and 36% respectively.
FIGS. 7A and 7B depict applying AbRGT for specific detection of active caspase-3 GFPspark using the Rh-DEVD-FMK (probe 2). Caspase-3 GFPspark (2 μg) overexpressing MCF-7 cells were treated with 1 μM of STS for 4 h and labelled with the probe 2 (1 μM). […] The rise in GFPspark intensity after rhodamine photobleaching in the background is insignificant as compared to the ROI, i.e., 68 a.u., with a calculated FRET efficiency of 35%.
FIG. 12 depicts confocal images of MCF-7 cells in GFP, FRET and Rh channel. Caspase-3 GFPspark transfected MCF-7 cells were treated with STS for 4 h and labelled (a) with or (b) without probe 1. Cells were pre-treated with (c) Z-VAD-FMK (50 μM) and (d) Q-VD-OPh (50 μM) pan-caspase inhibitors 3 h before the probe labelling.
Plasmids and transient transfection: GFPspark tagged plasmids; caspase-3 GFPspark tag (Cat: HG10050-ACG), caspase-7 GFPspark tag (HG10049-ACG), caspase-8 GFPspark (HG10078-ACG), caspase-9 GFPspark (HG11151-ACG) and cathepsin B GFPspark (HG10483-ACG) were procured from Sino Biological. For transfection, cells were seeded in a 6-well plate at a density of 0.4 million cells/well. At 60-70% confluency, cells were transiently transfected for 24 h at 37° C. with 1 μg of the GFPspark tagged plasmid DNA construct mixed with 5 μL of Lipofectamine 2000 (Invitrogen) according to the manufacturer's instructions. 24 h post-transfection, cells were visualized under the GFP filter for GFPspark expression under fluorescence microscope at 10× magnification.
Labelling of active caspases in apoptotic cells with FABP: After 24 h of transfection, cells were treated with STS (1 μM) drug or TRAIL (1 μg/ml) for apoptotic induction and incubated for 2, 4, 6 and 8 h at 37° C. in a humidified atmosphere of 5% CO2/95% air. Cells were gently scraped off from the surface at the end of apoptotic induction and centrifuged at 3000 rpm for 5 min. The cell pellet was resuspended in 300 μL of fresh DMEM containing 1 μM of probe for probe 2 and incubated for additional 2 h at 37° C. in a humidified atmosphere of 5% CO2. Cells were again centrifuged at 3000 rpm for 5 mins, and the supernatant was decanted. […]

[1] = MCF-7, inhibitor 50 μM pre-treatment before probe 1 labelling

For `CC(C)[C@H](NC(=O)c1ccc2ccccc2n1)C(=O)N[C@@H](CC(=O)O)C(=O)COc1c(F)cccc1F` [Q-VD-OPh], the “signal in Rh channel in presence of inhibitor” value [1] was “distinct punctate labelling was detected” and the “effect of inhibitor on FRET signal” value [1] was “abolished”.

In the case of “Rhodamine-VAD-fluoromethyl ketone [probe 1]”, the “calculated FRET efficiency” value (MCF-7, STS 1 μM 2 h) is reported as 38%, the “rise in GFP intensity after rhodamine photobleaching in ROI” value (MCF-7, STS 1 μM 4 h, probe 1 μM) is reported as 58±3 a.u and the “calculated FRET efficiency” value (MCF-7, STS 1 μM 4 h, probe 1 μM 2 h, acceptor photobleaching) is reported as 35±1%. The “calculated FRET efficiency” value (MCF-7, STS 1 μM 6 h) was 43% and the “calculated FRET efficiency” value (MCF-7, STS 1 μM 8 h) was 36%.

For `COC(=O)C[C@H](NC(=O)[C@H](C)NC(=O)[C@@H](NC(=O)OCc1ccccc1)C(C)C)C(=O)CF` [Z-VAD-FMK] (Cbz-Val-Ala-Asp(OMe)-CH2F), the “effect of inhibitor on FRET signal” value [1] was “completely abolished”.
